By EC50 is commonly meant the concentration giving half of the maximal effect.

Peptide text beside a SMILES is read from it.

In the test the target is Substance-P receptor (Rana catesbeiana). Nature of the test: SP-induced [Ca2+] mobilization in CHO cells expressing bullfrog Tachykinin receptor 1.
Consider `CSCC[C@H](NC(=O)[C@H](CC(C)C)NC(=O)CNC(=O)[C@H](Cc1ccc(O)cc1)NC(=O)[C@H](Cc1ccccc1)NC(=O)[C@H](CO)NC(=O)[C@H](CC(=O)O)NC(=O)[C@H](CO)NC(=O)[C@H](CCCCN)NC(=O)[C@@H](N)Cc1ccc(O)cc1)C(N)=O` (H-YKSDSFYGLM-NH2), for which the midpoint of the response, the EC50, lay at 14 nM.
Next, `CC[C@H](C)[C@H](NC(=O)[C@H](Cc1ccccc1)NC(=O)[C@H](CO)NC(=O)[C@H](C)NC(=O)[C@@H]1CCCN1C(=O)[C@H](CC(N)=O)NC(=O)[C@@H](N)Cc1cnc[nH]1)C(=O)NCC(=O)N[C@@H](CC(C)C)C(=O)N[C@@H](CCSC)C(N)=O` (H-HNPASFIGLM-NH2): 14 nM.
Regarding `CSCC[C@H](NC(=O)[C@H](CC(C)C)NC(=O)CNC(=O)[C@H](Cc1ccc(O)cc1)NC(=O)[C@H](Cc1ccccc1)NC(=O)[C@H](CCCNC(=N)N)NC(=O)[C@H](CC(=O)O)NC(=O)[C@@H]1CCCN1C(=O)[C@H](CO)NC(=O)[C@@H]1CCCN1C(=O)[C@@H](N)CCCCN)C(N)=O` (H-KPSPDRFYGLM-NH2), the EC50 came out at 0.6 nM.

Source of the values: ChEMBL document CHEMBL1132929 (J Med Chem, 2000).
